Laboratory results published in the NIST ThermoML archive (doi:10.1021/je5010214).

Conditions: Liquid, Vibrating tube method

CCCCO [butan-1-ol]
Conditions | mass density [kg/m3]
343.15 K, 44927 kPa | 804.186
343.15 K, 47908 kPa | 806.033
343.15 K, 50059 kPa | 807.349
343.15 K, 52026 kPa | 808.534
343.15 K, 59944 kPa | 813.181
343.15 K, 61967 kPa | 814.212
343.15 K, 65070 kPa | 815.911
343.15 K, 66059 kPa | 816.518
343.16 K, 34034 kPa | 797.101
343.16 K, 54919 kPa | 810.24
343.16 K, 57986 kPa | 812.021
348.15 K, 88.8 kPa | 765.578
348.15 K, 462.2 kPa | 765.945
348.15 K, 859.8 kPa | 766.355
348.15 K, 974.2 kPa | 766.465
348.15 K, 1974.9 kPa | 767.461
348.15 K, 3051.1 kPa | 768.513
348.15 K, 5094 kPa | 770.529
348.15 K, 10025 kPa | 775.087
348.15 K, 14792 kPa | 779.258
348.15 K, 20111 kPa | 783.649
348.15 K, 22163 kPa | 785.27
348.15 K, 28080 kPa | 789.8
348.15 K, 30149 kPa | 791.333
348.15 K, 32161 kPa | 792.797
348.15 K, 33959 kPa | 793.985
348.15 K, 35045 kPa | 794.751
348.15 K, 37937 kPa | 796.729
348.15 K, 40026 kPa | 798.192
348.15 K, 42066 kPa | 799.57
348.15 K, 47915 kPa | 803.304
348.15 K, 49950 kPa | 804.611
348.15 K, 52167 kPa | 805.991
348.15 K, 55022 kPa | 807.759
348.15 K, 57945 kPa | 809.531
348.15 K, 60030 kPa | 810.761
348.15 K, 64942 kPa | 813.608
348.15 K, 66153 kPa | 814.319
348.16 K, 291.7 kPa | 765.77
348.16 K, 7050.2 kPa | 772.352
348.16 K, 9003.2 kPa | 774.145
348.16 K, 12187 kPa | 777.001
348.16 K, 17899 kPa | 781.843
348.16 K, 25100 kPa | 787.55
348.16 K, 32942 kPa | 793.364
348.16 K, 45051 kPa | 801.465
348.16 K, 62063 kPa | 811.961
353.15 K, 86.2 kPa | 760.995
353.15 K, 336 kPa | 761.273
353.15 K, 572.6 kPa | 761.533
353.15 K, 926 kPa | 761.914
353.15 K, 1016.4 kPa | 762.008
353.15 K, 2992.1 kPa | 764.106
353.15 K, 4963.9 kPa | 766.051
353.15 K, 7000.9 kPa | 768.126
353.15 K, 9062.3 kPa | 770.136
353.15 K, 10005 kPa | 771.015
353.15 K, 12128 kPa | 772.98
353.15 K, 14954 kPa | 775.544
353.15 K, 17977 kPa | 778.173
353.15 K, 19937 kPa | 779.792
353.15 K, 21894 kPa | 781.405
353.15 K, 24908 kPa | 783.869
353.15 K, 27850 kPa | 786.199
353.15 K, 29936 kPa | 787.797
353.15 K, 31876 kPa | 789.263
353.15 K, 32961 kPa | 790.048
353.15 K, 34945 kPa | 791.423
353.15 K, 37913 kPa | 793.571
353.15 K, 40143 kPa | 795.172
353.15 K, 42067 kPa | 796.559
353.15 K, 45002 kPa | 798.55
353.15 K, 48029 kPa | 800.525
353.15 K, 50145 kPa | 801.944
353.15 K, 52082 kPa | 803.184
353.15 K, 55132 kPa | 805.077
353.15 K, 57980 kPa | 806.879
353.15 K, 60098 kPa | 808.146
